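Grown in 96-well plates, cells were treated for 48 hours with each compound at five concentrations. Insufficient inhibition: endpoint recorded as highest concentration tested. GI50 is the concentration that inhibits growth by half.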 The source made the active and inactive calls. Cut-off read from the data, not from the text of the source: active = GI50 up to about 1.1 µM and inactive = higher.
Key:
Assay in all cases: NCI anticancer screen, dose series, 48 h
PC-3 = test system: PC-3
NCI-H226 = test system: NCI-H226
OVCAR-5 = test system: OVCAR-5
SK-OV-3 = test system: SK-OV-3
SN12C = test system: SN12C
RXF 393 = test system: RXF 393
MDA-N = test system: MDA-N
IGROV-1 = test system: IGROV-1
MDA-MB-435 = test system: MDA-MB-435
ACHN = test system: ACHN
MDA-MB-231 = test system: MDA-MB-231
SK-MEL-5 = test system: SK-MEL-5
OVCAR-4 = test system: OVCAR-4
KM12 = test system: KM12
CAKI-1 = test system: CAKI-1
SNB-75 = test system: SNB-75
SK-MEL-28 = test system: SK-MEL-28
LOX IMVI = test system: LOX IMVI
786-0 = test system: 786-0
TK-10 = test system: TK-10
DU-145 = test system: DU-145
SF-268 = test system: SF-268
MCF7 = test system: MCF7
SF-539 = test system: SF-539
OVCAR-8 = test system: OVCAR-8
MOLT-4 = test system: MOLT-4
HOP-62 = test system: HOP-62
SK-MEL-2 = test system: SK-MEL-2
HCT-15 = test system: HCT-15
M14 = test system: M14
HL-60 = test system: HL-60
K562 = test system: K562
SNB-19 = test system: SNB-19
EKVX = test system: EKVX
RPMI-8226 = test system: RPMI-8226
UACC-257 = test system: UACC-257
NCI-H23 = test system: NCI-H23
U-251 = test system: U-251
UO-31 = test system: UO-31
A498 = test system: A498
COLO 205 = test system: COLO 205
HCT-116 = test system: HCT-116
UACC-62 = test system: UACC-62
NCI-H522 = test system: NCI-H522
OVCAR-3 = test system: OVCAR-3
HT-29 = test system: HT-29
BT-549 = test system: BT-549
NCI/ADR-RES = test system: NCI/ADR-RES
T47D = test system: T47D
SF-295 = test system: SF-295
A549 = test system: A549
NCI-H460 = test system: NCI-H460
SW-620 = test system: SW-620
HCC 2998 = test system: HCC 2998
Malme-3M = test system: Malme-3M
SR = test system: SR
CCRF-CEM = test system: CCRF-CEM

Cc1cc(Cc2cc(C)c(N)cc2N)c(N)cc1N
GI50 (PC-3): > 100 µM (inactive)
GI50 (NCI-H226): > 100 µM (inactive)
GI50 (OVCAR-5): > 100 µM (inactive)
GI50 (SK-OV-3): > 100 µM (inactive)
GI50 (SN12C): > 100 µM (inactive)
GI50 (RXF 393): > 100 µM (inactive)
GI50 (MDA-N): > 100 µM (inactive)
GI50 (IGROV-1): 4.38 µM (inactive)
GI50 (MDA-MB-435): 99.3 µM (inactive)
GI50 (ACHN): > 100 µM (inactive)
GI50 (MDA-MB-231): > 100 µM (inactive)
GI50 (SK-MEL-5): > 100 µM (inactive)
GI50 (OVCAR-4): > 100 µM (inactive)
GI50 (KM12): 85.5 µM (inactive)
GI50 (CAKI-1): > 100 µM (inactive)
GI50 (SNB-75): > 100 µM (inactive)
GI50 (SK-MEL-28): > 100 µM (inactive)
GI50 (LOX IMVI): 81.5 µM (inactive)
GI50 (786-0): > 100 µM (inactive)
GI50 (TK-10): > 100 µM (inactive)
GI50 (DU-145): > 100 µM (inactive)
GI50 (SF-268): 89.3 µM (inactive)
GI50 (MCF7): > 100 µM (inactive)
GI50 (SF-539): 80.2 µM (inactive)
GI50 (OVCAR-8): 94.4 µM (inactive)
GI50 (MOLT-4): 33.3 µM (inactive)
GI50 (HOP-62): 93.5 µM (inactive)
GI50 (SK-MEL-2): > 100 µM (inactive)
GI50 (HCT-15): > 100 µM
GI50 (M14): > 100 µM (inactive)
GI50 (HL-60): > 100 µM (inactive)
GI50 (K562): > 100 µM (inactive)
GI50 (SNB-19): > 100 µM (inactive)
GI50 (EKVX): > 100 µM (inactive)
GI50 (RPMI-8226): > 100 µM (inactive)
GI50 (UACC-257): > 100 µM (inactive)
GI50 (NCI-H23): 28.2 µM (inactive)
GI50 (U-251): > 100 µM (inactive)
GI50 (UO-31): > 100 µM (inactive)
GI50 (A498): > 100 µM (inactive)
GI50 (COLO 205): > 100 µM (inactive)
GI50 (HCT-116): > 100 µM (inactive)
GI50 (UACC-62): > 100 µM (inactive)
GI50 (NCI-H522): 88.9 µM (inactive)
GI50 (OVCAR-3): > 100 µM (inactive)
GI50 (HT-29): > 100 µM (inactive)
GI50 (BT-549): > 100 µM (inactive)
GI50 (NCI/ADR-RES): > 100 µM (inactive)
GI50 (T47D): > 100 µM (inactive)
GI50 (SF-295): > 100 µM (inactive)
GI50 (A549): > 100 µM (inactive)
GI50 (NCI-H460): 77.3 µM (inactive)
GI50 (SW-620): > 100 µM (inactive)

NNC(=O)c1nn[nH]c1C(=O)NN
GI50 (PC-3): > 100 µM (inactive)
GI50 (OVCAR-5): > 100 µM (inactive)
GI50 (SN12C): > 100 µM (inactive)
GI50 (RXF 393): > 100 µM (inactive)
GI50 (MDA-N): > 100 µM (inactive)
GI50 (MDA-MB-435): > 100 µM (inactive)
GI50 (HCC 2998): > 100 µM (inactive)
GI50 (MDA-MB-231): > 100 µM (inactive)
GI50 (SK-MEL-5): > 100 µM (inactive)
GI50 (OVCAR-4): > 10 µM (inactive)
GI50 (KM12): > 100 µM (inactive)
GI50 (CAKI-1): 15.8 µM (inactive)
GI50 (Malme-3M): 15.1 µM (inactive)
GI50 (786-0): 15.5 µM (inactive)
GI50 (TK-10): > 100 µM (inactive)
GI50 (DU-145): > 100 µM (inactive)
GI50 (SF-268): > 100 µM (inactive)
GI50 (MCF7): > 100 µM (inactive)
GI50 (OVCAR-8): > 100 µM (inactive)
GI50 (SR): > 100 µM (inactive)
GI50 (MOLT-4): > 100 µM (inactive)
GI50 (HOP-62): > 100 µM (inactive)
GI50 (SK-MEL-2): > 100 µM (inactive)
GI50 (HCT-15): > 100 µM
GI50 (M14): > 100 µM (inactive)
GI50 (HL-60): > 100 µM (inactive)
GI50 (K562): > 100 µM (inactive)
GI50 (SNB-19): > 100 µM (inactive)
GI50 (RPMI-8226): > 100 µM (inactive)
GI50 (UACC-257): > 100 µM (inactive)
GI50 (NCI-H23): > 100 µM (inactive)
GI50 (U-251): > 100 µM (inactive)
GI50 (UO-31): 19 µM (inactive)
GI50 (COLO 205): > 100 µM (inactive)
GI50 (HCT-116): > 100 µM (inactive)
GI50 (OVCAR-3): > 100 µM (inactive)
GI50 (HT-29): 13.5 µM (inactive)
GI50 (BT-549): 13.6 µM (inactive)
GI50 (NCI/ADR-RES): > 100 µM (inactive)
GI50 (CCRF-CEM): > 100 µM (inactive)
GI50 (SF-295): > 100 µM (inactive)
GI50 (A549): > 100 µM (inactive)
GI50 (NCI-H460): > 100 µM (inactive)
